Data on two compounds can be found in patent US20260176269A1, “ANTICOAGULANT HEPARIN OLIGOSACCHARIDE PHENYL-LINKED DIMER, PREPARATION METHOD THEREFOR AND USE THEREOF” (SHANDONG UNIVERSTIY, priority 2022, published 2026).

Data set [1] in a line: in vivo pharmacokinetics after subcutaneous injection in rats. To be noted: rat. The method, then: Both Fondaparinux and the phenyl-linked heparin hexasaccharide dimer I-1-1 were injected subcutaneously into Wister male rats weighing 200±20 g (n≥3) at a dose of 300 IU/kg. Blood samples were collected from the jugular vein of rats at 0, 0.5, 0.75, 1, 1.25, 1.5, 1.75, 2, 2.5, 3, 4, 8, 12 and 24 hours respectively (based on the actual blood collection time). After the blood samples were centrifuged at 5000 r/min for 15 minutes, the supernatant was taken to determine the anti-Factor Xa activity by the above method, and the residual concentrations of Fondaparinux and the phenyl-linked heparin hexasaccharide dimer I-1-1 in rats were calculated. The drug concentration vs. time curve was drawn.

In data set [2] the test system is Factor Xa. Nature of the data set: anti-Factor Xa titer against low molecular weight heparin standard curve, chromogenic substrate method. It is filed as biochemical.
For data set [3], the system named is Factor Xa. Nature of the data set: anti-Factor Xa activity, chromogenic substrate assay. It is filed as biochemical.
The test system of data set [4] is Factor Xa. Briefly: neutralization of anti-Factor Xa activity by protamine sulfate, chromogenic substrate method. It is filed as biochemical. To be noted: different concentrations of protamine sulfate. An excerpt:
Therefore, the phenyl-linked heparin hexasaccharide dimer I-1-1 prepared by the present disclosure is a novel heparin analog whose anticoagulant activity may be neutralized by protamine sulfate.

In the next data set the test system is Factor II a. Briefly: anti-Factor IIa activity, chromogenic substrate method. It is filed as biochemical. To be noted: data not shown.

Consider `O=C(O)C1OC(OC2C(COS(=O)(=O)O)OC(OC3C(C(=O)O)OC(OC4C(COS(=O)(=O)O)OC(OC5C(C(=O)O)OC(Oc6ccc(OC7OC(C(=O)O)C(OC8OC(COS(=O)(=O)O)C(OC9OC(C(=O)O)C(OC%10OC(COS(=O)(=O)O)C(OC%11OC(C(=O)O)C(OC%12OC(COS(=O)(=O)O)C(O)C(O)C%12NS(=O)(=O)O)C(O)C%11O)C(OS(=O)(=O)O)C%10NS(=O)(=O)O)C(O)C9OS(=O)(=O)O)C(O)C8NS(=O)(=O)O)C(O)C7O)cc6)C(O)C5O)C(NS(=O)(=O)O)C4O)C(OS(=O)(=O)O)C3O)C(NS(=O)(=O)O)C2OS(=O)(=O)O)C(O)C(O)C1OC1OC(COS(=O)(=O)O)C(O)C(O)C1NS(=O)(=O)O` (centres unmarked) [Compound I-1-1], for which the t1/2 in data set [1] (male, Wister, in vivo, sc) was 2.269 h. The “in vivo half-life (comparison in words)” value in data set [1] (in vivo) was “comparable to that of commercially available Fondaparinux”. Also, the titer in the data set with Factor Xa [2] is on record as 1,121.5 IU/mg. For the same compound, in the data set on Factor Xa [3] (mass concentration), the “IC50 value of the anti-Factor Xa activity” value was determined as 0.02815 µg/mL. In addition, in the data set on Factor Xa [3] (molar concentration), the IC50 (commonly the concentration that inhibits the measured activity by half) came to 7.2 nM. Further, the “neutralization of in vitro anti-Factor Xa activity by protamine sulfate” value with Factor Xa [4] is reported as “almost completely reversed”. Besides, the “anti-Factor IIa activity” value in the data set on Factor II a is recorded as “no significant anti-Factor Ha activity”.
With `CO[C@H]1O[C@H](COS(=O)(=O)O)[C@@H](O[C@@H]2O[C@@H](C(=O)O)[C@@H](O[C@H]3O[C@H](COS(=O)(=O)O)[C@@H](O[C@@H]4O[C@H](C(=O)O)[C@@H](O[C@H]5O[C@H](COS(=O)(=O)O)[C@@H](O)[C@H](O)[C@H]5NS(=O)(=O)O)[C@H](O)[C@H]4O)[C@H](OS(=O)(=O)O)[C@H]3NS(=O)(=O)O)[C@H](O)[C@H]2OS(=O)(=O)O)[C@H](O)[C@H]1NS(=O)(=O)O` [Fondaparinux, reference compound], the half-life – broadly, how long it takes for the measured level to halve – in data set [1] (male, Wister, plasma, sc, 300 IU/kg) was 2.17 h.
